Experiment [1] addresses purified recombinant human GAC (GLS1) (Homo sapiens (Human), UniProt O94925). Briefly: GLS1 Enzymatic Activity Assay (dual-coupled enzymatic assay, resorufin/Amplex UltraRed readout).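 Further: glutamate from GAC coupled via glutamate oxidase and peroxidase to resorufin, read as fluorescence (ex 530, em 590 nm) kinetically or at 20 min, four-parameter logistic IC50 fit.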 The class given is biochemical.
The next experiment relates to A549 cells. Briefly: Proliferation Assay (A549 viability, Cell Titer Fluor, 72 hours). The class given is cell-based. Conditions: Homo sapiens, A549, 72 h. The essentials: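 A549 cells seeded at 1000 cells/well, rested 24 h, then exposed to compound in 0.5% DMSO for 72 h at 37 °C. Viability read by Cell Titer Fluor fluorescence; IC50 from four-parameter logistic fit.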

Chain of purified recombinant human GAC (GLS1) (O94925 other isoform, or with tags, fused parts or gaps): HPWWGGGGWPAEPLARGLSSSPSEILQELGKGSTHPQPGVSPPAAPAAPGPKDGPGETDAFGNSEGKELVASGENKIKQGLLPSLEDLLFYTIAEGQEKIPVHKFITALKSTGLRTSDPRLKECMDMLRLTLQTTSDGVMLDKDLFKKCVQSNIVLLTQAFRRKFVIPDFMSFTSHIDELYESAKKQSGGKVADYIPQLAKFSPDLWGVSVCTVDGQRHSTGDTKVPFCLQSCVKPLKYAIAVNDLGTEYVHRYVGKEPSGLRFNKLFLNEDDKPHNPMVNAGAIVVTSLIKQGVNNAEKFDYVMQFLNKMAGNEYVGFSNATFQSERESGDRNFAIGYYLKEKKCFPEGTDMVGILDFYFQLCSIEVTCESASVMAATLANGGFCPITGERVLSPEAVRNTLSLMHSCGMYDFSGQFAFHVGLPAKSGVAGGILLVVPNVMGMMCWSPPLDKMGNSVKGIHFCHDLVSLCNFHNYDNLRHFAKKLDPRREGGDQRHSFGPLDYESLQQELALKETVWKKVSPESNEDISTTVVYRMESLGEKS

The IC50 is the point on the concentration scale where inhibition reaches its midpoint. A word on the EC50: it is the concentration giving half of the maximal effect. Read a high EC50 as a need for much substance. For `Cc1ccc(CNC(=O)c2cn(CC(F)CCn3cc(C(=O)NCc4cccc(OC(F)(F)F)c4)nn3)nn2)cn1` (centres unmarked) [Example 430, 1-{2-fluoro-4-[4-({[3-(trifluoromethoxy)phenyl]methyl}carbamoyl)-1H-1,2,3-triazol-1-yl]butyl}-N-[(6-methylpyridin-3-yl)methyl]-1H-1,2,3-triazole-4-carboxamide], the concentration for half-maximal inhibition (IC50) in experiment [1] was below 100 nM. The concentration giving a half-maximal response (EC50) with A549 cells is below 100 nM.

Consider `O=C(NCc1cccc(OC(F)(F)F)c1)c1cn(CCC(F)Cn2cc(C(=O)NCc3ccc(C(F)(F)F)cn3)nn2)nn1` (centres unmarked) [Example 431, 1-{2-fluoro-4-[4-({[3-(trifluoromethoxy)phenyl]methyl}carbamoyl)-1H-1,2,3-triazol-1-yl]butyl}-N-{[5-(trifluoromethyl)pyridin-2-yl]methyl}-1H-1,2,3-triazole-4-carboxamide], for which the IC50 in experiment [1] is below 100 nM. The same compound yielded an EC50 with A549 cells below 100 nM.

Take `O=C(NCc1cc(C(F)(F)F)ccn1)c1cn(CCC(F)Cn2cc(C(=O)NCc3cc(OC(F)(F)F)ccc3F)nn2)nn1` (centres unmarked) [Example 432, 1-{2-fluoro-4-[4-({[4-(trifluoromethyl)pyridin-2-yl]methyl}carbamoyl)-1H-1,2,3-triazol-1-yl]butyl}-N-{[-fluoro-5-(trifluoromethoxy)phenyl]methyl}-1H-1,2,3-triazole-4-carboxamide]: the 50% inhibitory concentration (IC50) in experiment [1] was below 100 nM. In addition, the EC50 in the experiment on A549 cells is below 100 nM.

For the compound `O=C(NCc1ccc(C(F)(F)F)cn1)c1cn(CCC(F)Cn2cc(C(=O)NCc3cccc(OC(F)(F)F)c3)nn2)nn1` (centres unmarked) [Example 433, 1-{2-fluoro-4-[4-({[5-(trifluoromethyl)pyridin-2-yl]methyl}carbamoyl)-1H-1,2,3-triazol-1-yl]butyl}-N-{[3-(trifluoromethoxy)phenyl]methyl}-1H-1,2,3-triazole-4-carboxamide], the concentration for half-maximal inhibition (IC50) in experiment [1] is below 100 nM. Besides, in the experiment on A549 cells, the EC50 was below 100 nM.

Turning to `Cc1ccc(CNC(=O)c2cn(CCC(F)Cn3cc(C(=O)NCc4cccc(OC(F)(F)F)c4)nn3)nn2)cn1` (centres unmarked) [Example 434, 1-[2-fluoro-4-(4-{[(6-methylpyridin-3-yl)methyl]carbamoyl}-1H-1,2,3-triazol-1-yl)butyl]-N-{[3-(trifluoromethoxy)phenyl]methyl}-1H-1,2,3-triazole-4-carboxamide], the concentration for half-maximal inhibition (IC50) in experiment [1] is below 100 nM. For the same compound, in the experiment on A549 cells, the 50% effective concentration (EC50) is below 100 nM.

Take `O=C(NCc1cccc(OC(F)(F)F)c1)c1cn(CCC(F)Cn2cc(C(=O)NCc3ccc(C(F)(F)F)nc3)nn2)nn1` (centres unmarked) [Example 435, 1-{2-fluoro-4-[4-({[3-(trifluoromethoxy)phenyl]methyl}carbamoyl)-1H-1,2,3-triazol-1-yl]butyl}-N-{[6-(trifluoromethyl)pyridin-3-yl]methyl}-1H-1,2,3-triazole-4-carboxamide]: the IC50 in experiment [1] is below 100 nM. This compound yielded a concentration giving a half-maximal response (EC50) in the experiment on A549 cells below 100 nM.

Regarding `O=C(NCc1cccc(OC(F)(F)F)c1)c1cn(CCC(F)Cn2cc(C(=O)NCc3cccc(C(F)(F)F)n3)nn2)nn1` (centres unmarked) [Example 436, 1-{2-fluoro-4-[4-({[3-(trifluoromethoxy)phenyl]methyl}carbamoyl)-1H-1,2,3-triazol-1-yl]butyl}-N-{[6-(trifluoromethyl)pyridin-2-yl]methyl}-1H-1,2,3-triazole-4-carboxamide], the concentration for half-maximal inhibition (IC50) in experiment [1] was below 100 nM. The compound also had an EC50 with A549 cells below 100 nM.

As to `O=C(NCc1ccc(C(F)(F)F)nc1)c1cn(CCC(F)Cn2cc(C(=O)NCc3cccc(OC(F)(F)F)c3)nn2)nn1` (centres unmarked) [Example 437, 1-{3-fluoro-4-[4-({[3-(trifluoromethoxy)phenyl]methyl}carbamoyl)-1H-1,2,3-triazol-1-yl]butyl}-N-{[6-(trifluoromethyl)pyridin-3-yl]methyl}-1H-1,2,3-triazole-4-carboxamide], the IC50 in experiment [1] was below 100 nM. This compound returned a half-maximal effective concentration (EC50) in the experiment with A549 cells below 100 nM.

For the compound `O=C(NCc1cccc(C(F)(F)F)n1)c1cn(CCC(F)Cn2cc(C(=O)NCc3cccc(OC(F)(F)F)c3)nn2)nn1` (centres unmarked) [Example 438, 1-{3-fluoro-4-[4-({[3-(trifluoromethoxy)phenyl]methyl}carbamoyl)-1H-1,2,3-triazol-1-yl]butyl}-N-{[6-(trifluoromethyl)pyridin-2-yl]methyl}-1H-1,2,3-triazole-4-carboxamide], the IC50 in experiment [1] was below 100 nM. This compound also came in with an EC50 in the experiment with A549 cells below 100 nM.

Turning to `O=C(NCc1cc(C(F)(F)F)ccn1)c1cn(CCC(F)Cn2cc(C(=O)NCc3cccc(OC(F)(F)F)c3)nn2)nn1` (centres unmarked) [Example 439, 1-{3-fluoro-4-[4-({[3-(trifluoromethoxy)phenyl]methyl}carbamoyl)-1H-1,2,3-triazol-1-yl]butyl}-N-{[4-(trifluoromethyl)pyridin-2-yl]methyl}-1H-1,2,3-triazole-4-carboxamide], the half-inhibitory concentration (IC50) in experiment [1] is below 100 nM. This compound also registered a concentration giving a half-maximal response (EC50) with A549 cells below 100 nM.

Take `O=C(NCc1ncccc1F)c1cn(CCC(F)Cn2cc(C(=O)NCc3cccc(OC(F)(F)F)c3)nn2)nn1` (centres unmarked) [Example 440, 1-{3-fluoro-4-[4-({[3-(trifluoromethoxy)phenyl]methyl}carbamoyl)-1H-1,2,3-triazol-1-yl]butyl}-N-[(3-fluoropyridin-2-yl)methyl]-1H-1,2,3-triazole-4-carboxamide]: in experiment [1], the half-maximal inhibitory concentration (IC50) was below 100 nM. This compound also showed a 50% effective concentration (EC50) in the experiment on A549 cells of 100 to 500 nM.

For `O=C(NCc1ccc(C(F)(F)F)cn1)c1cn(CCC(F)Cn2cc(C(=O)NCc3cc(OC(F)(F)F)ccc3F)nn2)nn1` (centres unmarked) [Example 441, 1-{2-fluoro-4-[4-({[5-(trifluoromethyl)pyridin-2-yl]methyl}carbamoyl)-1H-1,2,3-triazol-1-yl]butyl}-N-{[2-fluoro-5-(trifluoromethoxy)phenyl]methyl}-1H-1,2,3-triazole-4-carboxamide], the IC50 in experiment [1] was below 100 nM. The half-maximal effective concentration (EC50) in the experiment on A549 cells was below 100 nM.

With `Cc1ccc(CNC(=O)c2nnc(CCC(F)Cn3cc(C(=O)NCc4cccc(OC(F)(F)F)c4)nn3)s2)cn1` (centres unmarked) [Example 442, 5-{3-fluoro-4-[4-({[3-(trifluoromethoxy)phenyl]methyl}carbamoyl)-1H-1,2,3-triazol-1-yl]butyl}-N-[(6-methylpyridin-3-yl)methyl]-1,3,4-thiadiazole-2-carboxamide], in experiment [1], the concentration for half-maximal inhibition (IC50) is below 100 nM. The concentration for a half-maximal effect (EC50) in the experiment on A549 cells is below 100 nM.

Regarding `Cc1ccc(CNC(=O)c2nnc(CCC(F)Cn3cc(C(=O)NCc4cc(OC(F)(F)F)ccc4F)nn3)s2)cn1` (centres unmarked) [Example 443, 5-{3-fluoro-4-[4-({[2-fluoro-5-(trifluoromethoxy)phenyl]methyl}carbamoyl)-1H-1,2,3-triazol-1-yl]butyl}-N-[(6-methylpyridin-3-yl)methyl]-1,3,4-thiadiazole-2-carboxamide], in experiment [1], the concentration for half-maximal inhibition (IC50) is below 100 nM. For the same compound, in the experiment on A549 cells, the concentration giving a half-maximal response (EC50) was below 100 nM.

Turning to `O=C(NCc1ncccc1F)c1cn(CCC(F)Cn2cc(C(=O)NCc3cc(OC(F)(F)F)ccc3F)nn2)nn1` (centres unmarked) [Example 444, 1-{3-fluoro-4-[4-({[2-fluoro-5-(trifluoromethoxy)phenyl]methyl}carbamoyl)-1H-1,2,3-triazol-1-yl]butyl}-N-[(3-fluoropyridin-2-yl)methyl]-1H-1,2,3-triazole-4-carboxamide], the half-inhibitory concentration (IC50) in experiment [1] is below 100 nM. Besides, the EC50 with A549 cells was below 100 nM.

Take `O=C(NCc1ccc(C(F)(F)F)cn1)c1cn(CC(F)CCc2nnc(C(=O)NCc3cccc(OC(F)(F)F)c3)s2)nn1` (centres unmarked) [Example 445, 5-{3-fluoro-4-[4-({[5-(trifluoromethyl)pyridin-2-yl]methyl}carbamoyl)-1H-1,2,3-triazol-1-yl]butyl}-N-{[3-(trifluoromethoxy)phenyl]methyl}-1,3,4-thiadiazole-2-carboxamide]: the IC50 in experiment [1] was below 100 nM. Moreover, the 50% effective concentration (EC50) in the experiment with A549 cells was below 100 nM.

The values are drawn from US10344025B2, “GLS1 inhibitors for treating disease” (Board of Regents, The University of Texas System, priority 2014, dated 2019).
